Reference: patent US20250122218A1, “MODULATORS OF CYSTIC FIBROSIS TRANSMEMBRANE CONDUCTANCE REGULATOR” (Vertex Pharmaceuticals Incorporated, priority 2022, published 2025)

Molecular target: T1, CFTR in F508del/MF-HBE cells (Homo sapiens, UniProt P13569, DEL508-508)
T1 construct: human bronchial epithelial (HBE) cells derived from CF subjects heterozygous for F508del and a minimal function CFTR mutation; endogenous in cells; host or cells: primary human bronchial epithelial cells from CF subjects (F508del/MF-HBE)
Test: Ussing chamber assay of CFTR-mediated short-circuit currents (identification of potentiator compounds)
Type: cell-based
Conditions: potentiator incubated 18-24 hours at 37° C. in combination with 10 μM corrector, in the presence of 20% human serum, CFTR-mediated ISC
Procedure, shortened: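 Short-circuit current was measured in Ussing chambers at 37° C, Vhold 0 mV, 30 μM apical amiloride. CFTR current was defined as the forskolin (20 μM) response relative to the current remaining after BPO/GlyH-101/inhibitor 172 (20 μM each). Before recording, cells had 18-24 h exposure to test potentiators with 10 μM corrector compound in 20% human serum.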

T1 sequence (P13569 with tags, fused parts or gaps DEL508-508): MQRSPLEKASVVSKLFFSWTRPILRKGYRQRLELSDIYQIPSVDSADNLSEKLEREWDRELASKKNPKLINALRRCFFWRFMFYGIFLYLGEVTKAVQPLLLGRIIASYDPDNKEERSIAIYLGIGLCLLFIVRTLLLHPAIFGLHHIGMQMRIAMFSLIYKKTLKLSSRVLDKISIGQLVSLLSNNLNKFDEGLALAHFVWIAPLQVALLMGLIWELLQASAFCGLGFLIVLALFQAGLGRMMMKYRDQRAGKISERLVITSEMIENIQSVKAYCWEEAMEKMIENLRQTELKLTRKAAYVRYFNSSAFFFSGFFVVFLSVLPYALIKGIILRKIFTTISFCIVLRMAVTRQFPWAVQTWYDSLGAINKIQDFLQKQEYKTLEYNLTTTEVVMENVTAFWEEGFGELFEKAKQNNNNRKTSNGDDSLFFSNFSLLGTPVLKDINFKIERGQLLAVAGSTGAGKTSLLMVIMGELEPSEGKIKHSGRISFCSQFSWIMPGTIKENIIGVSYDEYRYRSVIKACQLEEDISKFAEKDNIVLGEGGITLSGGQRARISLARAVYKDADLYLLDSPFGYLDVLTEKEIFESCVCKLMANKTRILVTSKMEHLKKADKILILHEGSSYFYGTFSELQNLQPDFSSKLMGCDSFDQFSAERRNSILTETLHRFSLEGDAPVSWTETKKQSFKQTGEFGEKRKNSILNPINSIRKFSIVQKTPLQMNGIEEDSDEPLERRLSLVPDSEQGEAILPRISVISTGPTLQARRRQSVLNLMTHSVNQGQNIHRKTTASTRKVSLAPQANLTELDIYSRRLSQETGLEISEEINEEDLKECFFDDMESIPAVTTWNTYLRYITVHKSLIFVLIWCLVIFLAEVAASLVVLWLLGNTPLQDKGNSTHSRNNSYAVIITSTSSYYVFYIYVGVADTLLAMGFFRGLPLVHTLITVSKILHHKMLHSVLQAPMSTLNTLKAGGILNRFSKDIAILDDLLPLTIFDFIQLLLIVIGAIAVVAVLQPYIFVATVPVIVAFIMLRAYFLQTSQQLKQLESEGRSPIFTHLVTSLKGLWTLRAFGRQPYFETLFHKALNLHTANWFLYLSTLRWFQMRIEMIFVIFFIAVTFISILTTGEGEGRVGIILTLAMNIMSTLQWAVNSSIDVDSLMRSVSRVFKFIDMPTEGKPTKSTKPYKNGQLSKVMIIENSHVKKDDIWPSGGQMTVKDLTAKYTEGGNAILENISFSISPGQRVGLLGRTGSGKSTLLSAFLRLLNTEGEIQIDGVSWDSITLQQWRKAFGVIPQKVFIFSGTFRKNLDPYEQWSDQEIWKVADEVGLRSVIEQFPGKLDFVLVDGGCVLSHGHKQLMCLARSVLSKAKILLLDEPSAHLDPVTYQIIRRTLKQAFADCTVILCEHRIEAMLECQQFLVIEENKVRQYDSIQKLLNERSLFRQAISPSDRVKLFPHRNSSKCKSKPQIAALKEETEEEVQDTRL

SMILES	EC50 [nM]
Nc1cc(C(F)(F)F)c2nc1-c1nnc(o1)[C@@](O)(C(F)(F)F)CCCCCN(C1CC3(C1)CN(C(=O)C1CC1)C3)C2=O [Compound 191, (6R)-17-amino-12-[2-(cyclopropanecarbonyl)-2-azaspiro[3.3]heptan-6-yl]-6-hydroxy-6,15-bis(trifluoromethyl)-19-oxa-3,4,12,18-tetrazatricyclo[12.3.1.12,5]nonadeca-1(18),2,4,14,16-pentaen-13-one]	> 1000
Nc1cc(C(F)(F)F)c2nc1-c1nnc(o1)[C@@](O)(C(F)(F)F)CCCCCN(Cc1ccc(C34CC(C3)C4)cc1)C2=O [Compound 195, (6R)-17-amino-12-[[4-(1-bicyclo[1.1.1]pentanyl)phenyl]methyl]-6-hydroxy-6,15-bis(trifluoromethyl)-19-oxa-3,4,12,18-tetrazatricyclo[12.3.1.12,5]nonadeca-1(18),2,4,14,16-pentaen-13-one]	< 500
Nc1cc(C(F)(F)F)c2nc1-c1nnc(o1)[C@@](O)(C(F)(F)F)CCCCCN([C@H]1CC[C@H](C(F)(F)F)CC1)C2=O [Compound 209, (6R)-17-amino-6-hydroxy-12-[(1r,4r)-4-(trifluoromethyl)cyclohexyl]-6,15-bis(trifluoromethyl)-19-oxa-3,4,12,18-tetraazatricyclo [12.3.1.12,5] nonadeca-1(18),2,4,14,16-pentaen-13-one]	< 500
Nc1cc(C(F)(F)F)c2nc1-c1nnc(o1)[C@@](O)(C(F)(F)F)CCCCCN(C13CCC(CC1)CC3)C2=O [Compound 210, (6R)-17-amino-12-(1-bicyclo[2.2.2]octanyl)-6-hydroxy-6,15-bis(trifluoromethyl)-19-oxa-3,4,12,18-tetrazatricyclo [12.3.1.12,5] nonadeca-1(18),2,4,14,16-pentaen-13-one]	< 500
CC(C)(C)CCN1CCCCC[C@](O)(C(F)(F)F)C2=NN=C(O2)c2nc(c(C(F)(F)F)cc2N)C1=O [Compound 213, (6R)-17-amino-12-(3,3-dimethylbutyl)-6-hydroxy-6,15-bis(trifluoromethyl)-19-oxa-3,4,12,18-tetrazatricyclo [12.3.1.12,5] nonadeca-1(18),2,4,14,16-pentaen-13-one]	< 500
Nc1cc(C(F)(F)F)c2nc1-c1nnc(o1)[C@@](O)(C(F)(F)F)CCCCCN(Cc1ccc(C3CC3)cc1)C2=O [Compound 217, (6R)-17-amino-12-[(4-cyclopropylphenyl)methyl]-6-hydroxy-6,15-bis(trifluoromethyl)-19-oxa-3,4,12,18-tetrazatricyclo [12.3.1.12,5] nonadeca-1(18),2,4,14,16-pentaen-13-one]	< 500
CC1(N2CCCCC[C@](O)(C(F)(F)F)C3=NN=C(O3)c3nc(c(C(F)(F)F)cc3N)C2=O)CCCCC1 [Compound 219, (6R)-17-amino-6-hydroxy-12-(1-methylcyclohexyl)-6,15-bis(trifluoromethyl)-19-oxa-3,4,12,18-tetrazatricyclo [12.3.1.12,5] nonadeca-1(18),2,4,14,16-pentaen-13-one]	< 500
Nc1cc(C(F)(F)F)c2nc1-c1nnc(o1)[C@@](O)(C(F)(F)F)CCCCCN(Cc1cccc(C3(C(F)(F)F)CC3)c1)C2=O [Compound 220, (6R)-17-amino-6-hydroxy-6,15-bis(trifluoromethyl)-12-[[3-[1-(trifluoromethyl)cyclopropyl]phenyl]methyl]-19-oxa-3,4,12,18-tetrazatricyclo [12.3.1.12,5] nonadeca-1(18),2,4,14,16-pentaen-13-one]	< 500
CC(C)(C)c1cccc(CN2CCCCC[C@](O)(C(F)(F)F)C3=NN=C(O3)c3nc(c(C(F)(F)F)cc3N)C2=O)c1 [Compound 221, (6R)-17-amino-12-[(3-tert-butylphenyl)methyl]-6-hydroxy-6,15-bis(trifluoromethyl)-19-oxa-3,4,12,18-tetrazatricyclo [12.3.1.12,5] nonadeca-1(18),2,4,14,16-pentaen-13-one]	< 500
Nc1cc(C(F)(F)F)c2nc1-c1nnc(o1)[C@@](O)(C(F)(F)F)CCCCCN(Cc1cccc(OCC3(C(F)(F)F)CC3)c1)C2=O [Compound 223, (6R)-17-amino-6-hydroxy-6,15-bis(trifluoromethyl)-12-[[3-[[1-(trifluoromethyl)cyclopropyl]methoxy]phenyl]methyl]-19-oxa-3,4,12,18-tetrazatricyclo [12.3.1.12,5] nonadeca-1(18),2,4,14,16-pentaen-13-one]	< 500
Nc1cc(C(F)(F)F)c2nc1-c1nnc(o1)[C@@](O)(C(F)(F)F)CCCCCN(Cc1cccc(C3CC(F)(F)C3)c1)C2=O [Compound 224, (6R)-17-amino-12-[[3-(3,3-difluorocyclobutyl)phenyl]methyl]-6-hydroxy-6,15-bis(trifluoromethyl)-19-oxa-3,4,12,18-tetrazatricyclo [12.3.1.12,5] nonadeca-1(18),2,4,14,16-pentaen-13-one]	< 500

Second part, the compound after the results:

EC50 [nM]	SMILES
< 500	Nc1cc(C(F)(F)F)c2nc1-c1nnc(o1)[C@@](O)(C(F)(F)F)CCCCCNC2=O [Compound 188, (6R)-17-amino-6-hydroxy-6,15-bis(trifluoromethyl)-19-oxa-3,4,12,18-tetrazatricyclo[12.3.1.12,5]nonadeca-1(18),2,4,14,16-pentaen-13-one]
> 1000	Nc1cc(C(F)(F)F)c2nc1-c1nnc(o1)[C@](O)(C(F)(F)F)CCCCCNC2=O [Compound 189, (6S)-17-amino-6-hydroxy-6,15-bis(trifluoromethyl)-19-oxa-3,4,12,18-tetrazatricyclo[12.3.1.12,5]nonadeca-1(18),2,4,14,16-pentaen-13-one]
> 1000	CC(=O)N1CC2(CC(N3CCCCC[C@](O)(C(F)(F)F)C4=NN=C(O4)c4nc(c(C(F)(F)F)cc4N)C3=O)C2)C1 [Compound 190, (6R)-12-(2-acetyl-2-azaspiro[3.3]heptan-6-yl)-17-amino-6-hydroxy-6,15-bis(trifluoromethyl)-19-oxa-3,4,12,18-tetrazatricyclo[12.3.1.12,5]nonadeca-1(18),2,4,14,16-pentaen-13-one]
> 1000	NC[C@H]1CC[C@H](N2CCCCC[C@](O)(C(F)(F)F)C3=NN=C(O3)c3nc(c(C(F)(F)F)cc3N)C2=O)CC1 [Compound 192, (6R)-17-amino-6-hydroxy-12-[trans-4-(aminomethyl)cyclohexyl]-6,15-bis(trifluoromethyl)-19-oxa-3,4,12,18-tetraazatricyclo[12.3.1.12,5]nonadeca-1(18),2,4,14,16-pentaen-13-one]
< 500	N#C[C@H]1CC[C@H](N2CCCCC[C@](O)(C(F)(F)F)C3=NN=C(O3)c3nc(c(C(F)(F)F)cc3N)C2=O)CC1 [Compound 193, trans-4-[(6R)-17-amino-6-hydroxy-13-oxo-6,15-bis(trifluoromethyl)-19-oxa-3,4,12,18-tetraazatricyclo[12.3.1.12,5]nonadeca-1(18),2,4,14,16-pentaen-12-yl]cyclohexane-1-carbonitrile]
< 500	Nc1cc(C(F)(F)F)c2nc1-c1nnc(o1)[C@@](O)(C(F)(F)F)CCCCCN([C@H]1CC[C@@H](C(F)(F)F)CC1)C2=O [Compound 208, (6R)-17-amino-6-hydroxy-12-[(1s,4s)-4-(trifluoromethyl)cyclohexyl]-6,15-bis(trifluoromethyl)-19-oxa-3,4,12,18-tetraazatricyclo [12.3.1.12,5] nonadeca-1(18),2,4,14,16-pentaen-13-one]
< 500	COC12CCC(N3CCCCC[C@](O)(C(F)(F)F)c4nnc(o4)-c4nc(c(C(F)(F)F)cc4N)C3=O)(CC1)C2 [Compound 211, (6R)-17-amino-6-hydroxy-12-(4-methoxynorbornan-1-yl)-6,15-bis(trifluoromethyl)-19-oxa-3,4,12,18-tetrazatricyclo [12.3.1.12,5] nonadeca-1(18),2,4,14,16-pentaen-13-one]
< 500	Cc1cccc(CN2CCCCC[C@](O)(C(F)(F)F)C3=NN=C(O3)c3nc(c(C(F)(F)F)cc3N)C2=O)c1 [Compound 212, (6R)-17-amino-6-hydroxy-12-(m-tolylmethyl)-6,15-bis(trifluoromethyl)-19-oxa-3,4,12,18-tetrazatricyclo [12.3.1.12,5] nonadeca-1(18),2,4,14,16-pentaen-13-one]
< 500	Nc1cc(C(F)(F)F)c2nc1-c1nnc(o1)[C@@](O)(C(F)(F)F)CCCCCN(Cc1ccc(C3(C(F)(F)F)CC3)cn1)C2=O [Compound 214, (6R)-17-amino-6-hydroxy-6,15-bis(trifluoromethyl)-12-[[5-[1-(trifluoromethyl)cyclopropyl]-2-pyridyl]methyl]-19-oxa-3,4,12,18-tetrazatricyclo [12.3.1.12,5] nonadeca-1(18),2,4,14,16-pentaen-13-one]
< 500	Nc1cc(C(F)(F)F)c2nc1-c1nnc(o1)[C@@](O)(C(F)(F)F)CCCCCN(Cc1cccc(Br)c1)C2=O [Compound 216, (6R)-17-amino-12-[(3-bromophenyl)methyl]-6-hydroxy-6,15-bis(trifluoromethyl)-19-oxa-3,4,12,18-tetrazatricyclo [12.3.1.12,5] nonadeca-1(18),2,4,14,16-pentaen-13-one]
< 500	CC(C)(C1CC1)N1CCCCC[C@](O)(C(F)(F)F)C2=NN=C(O2)c2nc(c(C(F)(F)F)cc2N)C1=O [Compound 218, (6R)-17-amino-12-(1-cyclopropyl-1-methyl-ethyl)-6-hydroxy-6,15-bis(trifluoromethyl)-19-oxa-3,4,12,18-tetrazatricyclo [12.3.1.12,5] nonadeca-1(18),2,4,14,16-pentaen-13-one]
< 500	CC(C)(c1cccc(CN2CCCCC[C@](O)(C(F)(F)F)C3=NN=C(O3)c3nc(c(C(F)(F)F)cc3N)C2=O)c1)C(F)(F)F [Compound 222, (6R)-17-amino-6-hydroxy-12-[[3-(2,2,2-trifluoro-1,1-dimethyl-ethyl)phenyl]methyl]-6,15-bis(trifluoromethyl)-19-oxa-3,4,12,18-tetrazatricyclo [12.3.1.12,5] nonadeca-1(18),2,4,14,16-pentaen-13-one]
